Assay results as given in ChEMBL document CHEMBL1123524, “Aminoglycoside antibiotics. 6. Chemical reactions of aminoglycosides with disodium carbenicillin” (1986).

Tests used:
Escherichia coli [1] = assay: Antibacterial activity expressed as MIC value was determined on Escherichia coli A-20697 organism; type: functional
Staphylococcus aureus [2] = assay: Antibacterial activity expressed as MIC value was determined on Staphylococcus aureus A-9537 organism; type: functional
Escherichia coli [3] = assay: Antibacterial activity expressed as MIC value was determined on Escherichia coli A-22356 organism; type: functional
Escherichia coli [4] = assay: Antibacterial activity expressed as MIC value was determined on Escherichia coli A-21218 organism; type: functional
Staphylococcus aureus [5] = assay: Antibacterial activity expressed as MIC value was determined on Staphylococcus aureus A-22058 organism; type: functional
Staphylococcus aureus [6] = assay: Antibacterial activity expressed as MIC value was determined on Staphylococcus aureus A-20240 organism; type: functional
Pseudomonas aeruginosa [7] = assay: Antibacterial activity expressed as MIC value was determined on Pseudomonas aeruginosa A-21509 organism; type: functional
Staphylococcus aureus [8] = assay: Antibacterial activity expressed as MIC value was determined on Staphylococcus aureus A-22231 organism; type: functional
Escherichia coli [9] = assay: Antibacterial activity expressed as MIC value was determined on Escherichia coli A-20732 organism; type: functional
Proteus mirabilis = assay: Antibacterial activity expressed as MIC value was determined on Proteus mirabilis A-9900 organism; type: functional
Serratia marcescens = assay: Antibacterial activity expressed as MIC value was determined on Serratia marcescens A-20019 organism; type: functional
Escherichia coli [10] = assay: Antibacterial activity expressed as MIC value was determined on Escherichia coli A-20895; type: functional
Pseudomonas aeruginosa [11] = assay: Antibacterial activity expressed as MIC value was determined on Pseudomonas aeruginosa A-20741 organism; type: functional
Providencia rettgeri [12] = assay: (§1) Antibacterial activity expressed as MIC value was determined on Proteus rettgeri A-9637 organism; type: functional
Staphylococcus aureus [13] = assay: Antibacterial activity expressed as MIC value was determined on Staphylococcus aureus A-22210 organism; type: functional
Pseudomonas aeruginosa [14] = assay: Antibacterial activity expressed as MIC value was determined on Pseudomonas aeruginosa A-20653 organism; type: functional
Pseudomonas aeruginosa [15] = assay: Antibacterial activity expressed as MIC value was determined on Pseudomonas aeruginosa A-20717 organism; type: functional
Pseudomonas aeruginosa [16] = assay: Antibacterial activity expressed as MIC value was determined on Pseudomonas aeruginosa A-9834A organism; type: functional
Enterobacter cloacae [17] = assay: Antibacterial activity expressed as MIC value was determined on Enterobacter cloacae A-9656 organism; type: functional
Providencia stuartii [18] = assay: Antibacterial activity expressed as MIC value was determined on Proteus stuartii A-21210 organism; type: functional
Escherichia coli [19] = assay: Antibacterial activity expressed as MIC value was determined on Escherichia coli A-20683 organism; type: functional
Pseudomonas aeruginosa [20] = assay: Antibacterial activity expressed as MIC value was determined on Pseudomonas aeruginosa A-21294 organism; type: functional
Providencia rettgeri [21] = assay: ntibacterial activity expressed as MIC value was determined on Proteus rettgeri A-21207 organism; type: functional
Enterobacter cloacae [22] = assay: Antibacterial activity expressed as MIC value was determined on Enterobacter cloacae A-21006 organism; type: functional
Enterobacter cloacae [23] = assay: Antibacterial activity expressed as MIC value was determined on Enterobacter cloacae A-20364 organism; type: functional
Escherichia coli [24] = assay: Antibacterial activity expressed as MIC value was determined on Escherichia coli A-9632 organism; type: functional
Pseudomonas aeruginosa [25] = assay: Antibacterial activity expressed as MIC value was determined on Pseudomonas aeruginosa A-20897 organism; type: functional
Pseudomonas aeruginosa [26] = assay: Antibacterial activity expressed as MIC value was determined on Pseudomonas aeruginosa A-21508 organism; type: functional
Providencia stuartii [27] = assay: Antibacterial activity expressed as MIC value was determined on Proteus stuartii A-20894 organism; type: functional
Escherichia coli [28] = assay: Antibacterial activity expressed as MIC value was determined on Escherichia coli A-20665 organism; type: functional
Staphylococcus aureus [29] = assay: Antibacterial activity expressed as MIC value was determined on Staphylococcus aureus A-21978 organism; type: functional
Enterobacter cloacae [30] = assay: Antibacterial activity expressed as MIC value was determined on Enterobacter cloacae A-21136 organism; type: functional
Pseudomonas aeruginosa [31] = assay: Antibacterial activity expressed as MIC value was determined on Pseudomonas aeruginosa A-20601 organism; type: functional
Klebsiella pneumoniae = assay: Antibacterial activity expressed as MIC value was determined on Klebsiella pneumonia A-20468 organism; type: functional
Pseudomonas aeruginosa [32] = assay: Antibacterial activity expressed as MIC value was determined on Pseudomonas aeruginosa A-22233 organism; type: functional
Escherichia coli [33] = assay: Antibacterial activity expressed as MIC value was determined on Escherichia coli A-22045 organism; type: functional
Escherichia coli [34] = assay: Antibacterial activity expressed as MIC value was determined on Escherichia coli A-20895 organism; type: functional
Staphylococcus aureus [35] = assay: Antibacterial activity expressed as MIC value was determined on; type: functional, organism-based
Pseudomonas aeruginosa [36] = assay: Antibacterial activity expressed as MIC value was determined on Pseudomonas aeruginosa A-20601; type: functional, organism-based
Pseudomonas aeruginosa [37] = assay: Antibacterial activity expressed as MIC value was determined on Pseudomonas aeruginosa A-9834A organismA-; type: functional, organism-based
Providencia rettgeri [38] = assay: as §1; type: functional; remark: listed apart in the source
Providencia rettgeri [39] = assay: Antibacterial activity expressed as MIC value was determined on Proteus rettgeri A-21207 organism; type: functional

Measured: MIC

CC1(C)S[C@@H]2[C@H](NC(=O)C(C(=O)O)c3ccccc3)C(=O)N2[C@H]1C(=O)O (stereo not given in full) [CARBENICILLIN]
63 µg/mL: Escherichia coli [10]
> 125 µg/mL: Pseudomonas aeruginosa [7] | Escherichia coli [9] | Staphylococcus aureus [13] | Pseudomonas aeruginosa [15] | Escherichia coli [19] | Pseudomonas aeruginosa [20] | Enterobacter cloacae [22] | Enterobacter cloacae [23] | Pseudomonas aeruginosa [25] | Pseudomonas aeruginosa [26] | Staphylococcus aureus [29] | Enterobacter cloacae [30] | Klebsiella pneumoniae | Pseudomonas aeruginosa [32]
4 µg/mL: Escherichia coli [3] | Staphylococcus aureus [5]
1 µg/mL: Staphylococcus aureus [2] | Providencia stuartii [18]
16 µg/mL: Serratia marcescens | Providencia rettgeri [21]
125 µg/mL: Pseudomonas aeruginosa [11] | Pseudomonas aeruginosa [14] | Pseudomonas aeruginosa [31]
2 µg/mL: Staphylococcus aureus [8]
0.5 µg/mL: Proteus mirabilis | Providencia rettgeri [12]
32 µg/mL: Escherichia coli [1] | Escherichia coli [4] | Pseudomonas aeruginosa [16] | Enterobacter cloacae [17] | Escherichia coli [33]
8 µg/mL: Staphylococcus aureus [6] | Escherichia coli [24] | Providencia stuartii [27] | Escherichia coli [28]

NC[C@H]1O[C@H](O[C@H]2[C@H](O)[C@@H](O[C@H]3O[C@H](CO)[C@@H](O)[C@H](N)[C@H]3O)[C@H](N)C[C@@H]2N)[C@H](O)[C@@H](O)[C@@H]1O [KANAMYCIN]
2 µg/mL: Escherichia coli [1] | Escherichia coli [3] | Proteus mirabilis | Escherichia coli [34] | Providencia rettgeri [21] | Escherichia coli [24]
> 125 µg/mL: Staphylococcus aureus [6] | Pseudomonas aeruginosa [7] | Pseudomonas aeruginosa [11] | Staphylococcus aureus [13] | Pseudomonas aeruginosa [14] | Escherichia coli [19] | Enterobacter cloacae [22] | Enterobacter cloacae [23] | Pseudomonas aeruginosa [25] | Pseudomonas aeruginosa [26] | Escherichia coli [28] | Staphylococcus aureus [29] | Pseudomonas aeruginosa [32]
0.05 µg/mL: Staphylococcus aureus [2]
63 µg/mL: Escherichia coli [9] | Pseudomonas aeruginosa [16] | Pseudomonas aeruginosa [20]
4 µg/mL: Providencia stuartii [27] | Escherichia coli [33]
1 µg/mL: Serratia marcescens | Enterobacter cloacae [17]
32 µg/mL: Escherichia coli [4] | Pseudomonas aeruginosa [15] | Enterobacter cloacae [30] | Pseudomonas aeruginosa [31]
125 µg/mL: Staphylococcus aureus [5]
8 µg/mL: Staphylococcus aureus [8]
0.5 µg/mL: Providencia rettgeri [12] | Providencia stuartii [18] | Klebsiella pneumoniae

NC[C@H]1O[C@H](O[C@H]2[C@H](O)[C@@H](O[C@H]3O[C@H](CO)[C@@H](O)[C@H](N)[C@H]3O)[C@H](N)C[C@@H]2N)[C@H](N)C[C@@H]1O [TOBRAMYCIN]
0.25 µg/mL: Escherichia coli [3] | Enterobacter cloacae [17] | Escherichia coli [24]
0.06 µg/mL: Pseudomonas aeruginosa [26] | Klebsiella pneumoniae
4 µg/mL: Pseudomonas aeruginosa [7] | Escherichia coli [33]
1 µg/mL: Enterobacter cloacae [22] | Escherichia coli [28]
16 µg/mL: Staphylococcus aureus [8] | Escherichia coli [19] | Pseudomonas aeruginosa [20] | Providencia stuartii [27] | Enterobacter cloacae [30]
2 µg/mL: Serratia marcescens | Providencia stuartii [18]
0.13 µg/mL: Escherichia coli [1] | Staphylococcus aureus [6] | Providencia rettgeri [12] | Pseudomonas aeruginosa [14] | Pseudomonas aeruginosa [15] | Pseudomonas aeruginosa [16] | Pseudomonas aeruginosa [31]
0.03 µg/mL: Staphylococcus aureus [2]
125 µg/mL: Pseudomonas aeruginosa [25] | Pseudomonas aeruginosa [32]
> 125 µg/mL: Pseudomonas aeruginosa [11]
0.5 µg/mL: Proteus mirabilis | Escherichia coli [34] | Enterobacter cloacae [23]
8 µg/mL: Escherichia coli [4] | Escherichia coli [9] | Staphylococcus aureus [13]
32 µg/mL: Staphylococcus aureus [5] | Providencia rettgeri [21] | Staphylococcus aureus [29]

GENTAMICIN
4 µg/mL: Pseudomonas aeruginosa [15]
63 µg/mL: Escherichia coli [33]
125 µg/mL: Providencia stuartii [27]
0.06 µg/mL: Staphylococcus aureus [2] | Providencia rettgeri [38]
> 125 µg/mL: Pseudomonas aeruginosa [11] | Pseudomonas aeruginosa [36] | Pseudomonas aeruginosa [25]
0.25 µg/mL: Escherichia coli [1] | Escherichia coli [4] | Pseudomonas aeruginosa [37] | Escherichia coli [24] | Staphylococcus aureus [29] | Klebsiella pneumoniae
8 µg/mL: Providencia rettgeri [39]
0.13 µg/mL: Staphylococcus aureus [6] | Staphylococcus aureus [8] | Staphylococcus aureus [35]
32 µg/mL: Staphylococcus aureus [13] | Escherichia coli [34] | Escherichia coli [19]
16 µg/mL: Pseudomonas aeruginosa [7] | Escherichia coli [9]
1 µg/mL: Proteus mirabilis | Serratia marcescens | Providencia stuartii [18] | Pseudomonas aeruginosa [20]
